Experimental data reported in ChEMBL document CHEMBL1127671, “Molecular modeling studies of aldose reductase inhibitors” (J Med Chem, 1994).

Biological target: Aldo-keto reductase family 1 member B1 (Rattus norvegicus, UniProt P07943)
Test: Inhibitory activity against purified rat lens aldose reductase (RLAR)

Row | SMILES | IC50 [µM]
1 | O=C(O)CC1c2cc(F)ccc2-c2ccc(F)cc21 | 0.43
2 | O=C1NC(=O)C2(N1)c1ccccc1-c1ccccc12 | 3.5
3 | O=C(O)C=C1c2cc(F)ccc2-c2ccc(F)cc21 | 16
4 | O=C(O)CC1c2ccccc2-c2ccc(F)cc21 (stereo not drawn) | 0.85
5 | O=C(O)C1CC12c1ccccc1-c1ccccc12 (stereo not drawn) | 11.7
6 | c1ccc2c(c1)-c1ccccc1C2Cc1nnn[nH]1 | 1490
7 | O=C(O)/C=C1\c2ccccc2-c2ccc(F)cc21 | 56
8 | O=C(O)Cc1nn(Cc2ccc(Br)cc2F)c(=O)c2ccccc12 [PONALRESTAT] | 0.016

Further compounds by falling IC50, results first:

Row | IC50 [µM] | SMILES
9 | 217 | c1ccc2c(c1)-c1ccccc1C2c1nnn[nH]1
10 | 182 | O=C(O)C1c2ccccc2-c2ccccc21
11 | 8.9 | O=C(O)CC1c2ccccc2-c2ccccc21
12 | 0.13 | CC(C)c1cccc2c1OC(C(C)C)C(=S)N2CC(=O)O (stereo not drawn)
13 | 0.0044 | O=C(O)Cn1c(=O)n(Cc2ccc(Br)cc2F)c(=O)c2ccc(Cl)cc21 [ZENARESTAT]
